Assay results as given in patent US8871753B2, “Macrocyclic compounds and their use as kinase inhibitors” (Incyte Corporation, priority 2008, dated 2014).
pIC50: −log10 of the molar value. Where two headings read alike, the source gives them in different places.

Columns and labels:
[1] = from COc1ccc(Nc2nc(Cl)ncc2Cl)cc1CCc1cncc(N)c1; cn_pd bond; 13-membered ring; Pd(OAc)2/Xantphos/Cs2CO3; 1,4-dioxane/DMF 1:1; 77.0 mM; 150.0 °C; 0.33 h
[2] = patients; cited from earlier work
[3] = system: myeloid dendritic cells (DCs); settings: CD40-induced maturation of myeloid DCs; cited from earlier work
[4] = system: NOD mouse; settings: NOD mouse model of autoimmune type 1 diabetes; cited from earlier work
[5] = cn_pd bond, 13-membered ring, Pd(OAc)2/Xantphos/Cs2CO3/Et3N, 0.5 h
[6] = molecular target: T1, human JAK1 (a.a. 837-1142) (Homo sapiens, UniProt P23458); assay: In vitro JAK kinase assay (HTRF, phosphorylation of a biotinylated peptide), JAK1; type: biochemical; settings: read-out: JAK1 IC50
T1 construct: human JAK1 (a.a. 837-1142); His tag (N); made in house; host or cells: insect cells (baculovirus)
T1 sequence (P23458 849-1154): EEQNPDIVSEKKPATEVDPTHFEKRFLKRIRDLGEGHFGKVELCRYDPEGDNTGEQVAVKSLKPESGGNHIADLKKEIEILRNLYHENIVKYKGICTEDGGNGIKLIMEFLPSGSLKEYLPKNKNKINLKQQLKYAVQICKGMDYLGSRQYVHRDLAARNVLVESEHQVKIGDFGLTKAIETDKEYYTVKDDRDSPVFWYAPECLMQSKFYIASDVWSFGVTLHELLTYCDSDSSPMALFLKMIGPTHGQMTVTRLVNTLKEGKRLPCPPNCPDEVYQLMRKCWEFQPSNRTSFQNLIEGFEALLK
How it was run: (§1)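 Kinase activity was measured as phosphorylation of a biotinylated peptide, with ATP at 90 μM for JAK1, 30 μM for JAK2 and 3 μM for JAK3. Reactions ran 1 hr at room temperature, were stopped with EDTA plus SA-APC and Eu-Py20, and were read by HTRF after 40 minutes of antibody binding.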

[7] = molecular target: T2, human JAK2 (a.a. 828-1132) (Homo sapiens, UniProt O60674); assay: In vitro JAK kinase assay (HTRF, phosphorylation of a biotinylated peptide), JAK2; type: biochemical
T2 construct: JAK2 (a.a. 828-1132); His tag (N); made in house; host or cells: insect cells (baculovirus)
T2 sequence (O60674 828-1132): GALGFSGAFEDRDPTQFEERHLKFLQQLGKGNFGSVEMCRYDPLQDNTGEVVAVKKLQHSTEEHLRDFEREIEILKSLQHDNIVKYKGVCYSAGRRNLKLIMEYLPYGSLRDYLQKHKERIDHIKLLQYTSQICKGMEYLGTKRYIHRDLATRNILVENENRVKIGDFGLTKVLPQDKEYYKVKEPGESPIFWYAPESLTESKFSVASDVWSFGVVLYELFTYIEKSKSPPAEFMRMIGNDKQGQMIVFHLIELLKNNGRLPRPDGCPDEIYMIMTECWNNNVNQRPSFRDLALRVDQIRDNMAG
How it was run: as §1

[8] = molecular target: T3, human JAK3 (a.a. 781-1124) (Homo sapiens, UniProt P52333); assay: In vitro JAK kinase assay (HTRF, phosphorylation of a biotinylated peptide), JAK3; type: biochemical
T3 construct: JAK3 (a.a. 781-1124); His tag (N); made in house; host or cells: insect cells (baculovirus)
T3 sequence (P52333 781-1124): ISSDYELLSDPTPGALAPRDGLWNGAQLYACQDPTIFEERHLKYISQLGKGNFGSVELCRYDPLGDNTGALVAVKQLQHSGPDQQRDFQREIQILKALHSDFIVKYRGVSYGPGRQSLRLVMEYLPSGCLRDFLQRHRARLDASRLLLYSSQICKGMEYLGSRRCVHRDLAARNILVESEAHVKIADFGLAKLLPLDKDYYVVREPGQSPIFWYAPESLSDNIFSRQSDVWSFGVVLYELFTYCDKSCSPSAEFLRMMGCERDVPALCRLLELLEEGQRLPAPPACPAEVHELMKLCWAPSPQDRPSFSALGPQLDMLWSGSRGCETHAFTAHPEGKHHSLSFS
How it was run: as §1

[9] = molecular target: TYK2 (Homo sapiens, UniProt P29597); assay: TYK2 kinase inhibition (Table A1); type: biochemical
TYK2, sequence (P29597 whole entry): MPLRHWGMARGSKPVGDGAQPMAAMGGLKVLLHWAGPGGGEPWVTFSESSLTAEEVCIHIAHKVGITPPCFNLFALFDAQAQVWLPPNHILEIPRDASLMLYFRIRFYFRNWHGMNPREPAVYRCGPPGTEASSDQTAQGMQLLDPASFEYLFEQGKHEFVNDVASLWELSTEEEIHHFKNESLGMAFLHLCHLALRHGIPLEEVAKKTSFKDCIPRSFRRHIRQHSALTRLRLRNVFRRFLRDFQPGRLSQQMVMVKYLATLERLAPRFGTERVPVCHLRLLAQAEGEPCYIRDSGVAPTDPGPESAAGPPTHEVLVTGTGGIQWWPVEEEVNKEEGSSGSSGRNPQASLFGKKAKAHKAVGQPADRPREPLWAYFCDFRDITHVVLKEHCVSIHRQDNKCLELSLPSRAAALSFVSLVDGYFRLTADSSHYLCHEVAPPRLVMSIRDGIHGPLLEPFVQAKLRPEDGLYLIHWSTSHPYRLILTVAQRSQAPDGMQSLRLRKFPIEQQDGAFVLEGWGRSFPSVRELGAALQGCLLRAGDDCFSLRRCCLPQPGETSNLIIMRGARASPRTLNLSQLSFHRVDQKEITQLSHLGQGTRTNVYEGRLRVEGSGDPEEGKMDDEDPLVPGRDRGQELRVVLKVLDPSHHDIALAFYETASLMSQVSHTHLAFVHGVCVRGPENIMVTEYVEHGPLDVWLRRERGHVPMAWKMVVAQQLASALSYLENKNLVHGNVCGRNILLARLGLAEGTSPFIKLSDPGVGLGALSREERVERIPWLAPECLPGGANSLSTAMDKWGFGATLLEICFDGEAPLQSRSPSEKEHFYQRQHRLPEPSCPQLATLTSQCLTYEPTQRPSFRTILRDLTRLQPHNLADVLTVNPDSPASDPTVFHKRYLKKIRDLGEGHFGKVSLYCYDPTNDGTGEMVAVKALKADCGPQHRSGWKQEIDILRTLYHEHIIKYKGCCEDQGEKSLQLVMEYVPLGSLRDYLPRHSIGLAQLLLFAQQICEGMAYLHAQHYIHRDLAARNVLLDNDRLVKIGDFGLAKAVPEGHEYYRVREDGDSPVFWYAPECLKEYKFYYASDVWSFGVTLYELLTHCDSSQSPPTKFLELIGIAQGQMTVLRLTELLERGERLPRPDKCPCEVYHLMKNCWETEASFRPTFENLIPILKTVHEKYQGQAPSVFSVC

[10] = molecular target: T4, Recombinant Human Anaplastic Lymphoma Kinase (Homo sapiens, UniProt Q9UM73); assay: ALK HTRF kinase assay; type: biochemical; settings: compound at a concentration of 500 nM or 1 mM
T4 construct: purchased Invitrogen, Carlsbad, Calif
T4 sequence (Q9UM73 19-1620): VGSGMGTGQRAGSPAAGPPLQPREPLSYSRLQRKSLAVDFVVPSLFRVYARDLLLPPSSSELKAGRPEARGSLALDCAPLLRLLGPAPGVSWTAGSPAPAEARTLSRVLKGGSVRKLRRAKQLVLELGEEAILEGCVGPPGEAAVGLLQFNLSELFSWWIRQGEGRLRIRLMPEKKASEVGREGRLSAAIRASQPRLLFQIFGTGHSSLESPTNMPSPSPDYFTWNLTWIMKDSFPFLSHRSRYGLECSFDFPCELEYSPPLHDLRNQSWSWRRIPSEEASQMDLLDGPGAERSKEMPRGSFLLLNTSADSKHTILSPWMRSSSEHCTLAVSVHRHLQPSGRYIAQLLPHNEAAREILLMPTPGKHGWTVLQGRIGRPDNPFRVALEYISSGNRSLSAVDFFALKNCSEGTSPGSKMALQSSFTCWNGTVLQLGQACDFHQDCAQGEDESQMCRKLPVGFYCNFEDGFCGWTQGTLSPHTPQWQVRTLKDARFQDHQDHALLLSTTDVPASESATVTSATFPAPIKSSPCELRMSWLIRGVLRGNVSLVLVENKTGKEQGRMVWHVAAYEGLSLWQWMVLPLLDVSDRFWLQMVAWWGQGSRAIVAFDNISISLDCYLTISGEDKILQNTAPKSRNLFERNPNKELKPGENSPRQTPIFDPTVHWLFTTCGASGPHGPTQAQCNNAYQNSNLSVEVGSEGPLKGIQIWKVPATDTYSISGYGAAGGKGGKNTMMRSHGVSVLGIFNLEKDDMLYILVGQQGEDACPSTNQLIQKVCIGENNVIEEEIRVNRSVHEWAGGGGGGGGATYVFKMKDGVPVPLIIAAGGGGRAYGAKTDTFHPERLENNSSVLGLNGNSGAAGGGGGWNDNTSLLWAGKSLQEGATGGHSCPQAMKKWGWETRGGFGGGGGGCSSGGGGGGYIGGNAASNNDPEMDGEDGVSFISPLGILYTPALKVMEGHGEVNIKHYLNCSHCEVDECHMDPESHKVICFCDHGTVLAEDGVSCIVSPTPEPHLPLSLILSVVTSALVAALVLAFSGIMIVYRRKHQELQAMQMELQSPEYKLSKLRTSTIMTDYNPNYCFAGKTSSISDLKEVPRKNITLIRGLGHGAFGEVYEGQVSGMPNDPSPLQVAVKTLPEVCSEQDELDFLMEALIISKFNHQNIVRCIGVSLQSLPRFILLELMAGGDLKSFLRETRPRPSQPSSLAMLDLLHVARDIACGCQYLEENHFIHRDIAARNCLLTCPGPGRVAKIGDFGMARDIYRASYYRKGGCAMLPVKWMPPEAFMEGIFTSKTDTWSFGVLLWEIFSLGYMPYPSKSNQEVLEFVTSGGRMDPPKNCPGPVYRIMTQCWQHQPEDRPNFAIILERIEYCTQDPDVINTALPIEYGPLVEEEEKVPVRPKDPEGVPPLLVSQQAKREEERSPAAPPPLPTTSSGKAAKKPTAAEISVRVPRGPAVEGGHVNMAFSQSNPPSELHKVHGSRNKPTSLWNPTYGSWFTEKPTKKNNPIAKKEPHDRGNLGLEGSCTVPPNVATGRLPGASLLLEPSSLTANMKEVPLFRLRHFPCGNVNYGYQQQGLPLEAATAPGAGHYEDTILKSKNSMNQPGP
How it was run: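 Recombinant human ALK phosphorylated a biotinylated synthetic peptide. Phosphotyrosine was detected by TR-FRET between a Eu-labelled anti-phosphotyrosine antibody and streptavidin-allophycocyanin. IC50 values came from fitting signal against inhibitor concentration to a four-parameter logistic equation with variable Hill slope.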

[11] = system: IL-6-dependent MM cell lines; settings: cited from earlier work

SMILES	pIC50 [6]	pIC50 [7]	pIC50 [8]	pIC50 [9]	ALK % inhibition at a concentration of 500 nM or 1 mM [10] [%]	other results
COc1ccc2cc1CCc1cncc(c1)Nc1ncc(Cl)c(n1)N2						ring closure, crude yield [1]: 85%
C#Cc1cccc(Nc2ncnc3cc(OCCOC)c(OCCOC)cc23)c1 [Tarceva]						acneiform rash [2]: induced acneiform rash with some patients
COc1cc2ncnc(Nc3ccc(O)c(Br)c3)c2cc1OC [WHI-P-154]						CD40-induced effects (JAK3 activity, costimulatory molecule expression, IL-12 production, allogeneic stimulatory capacity) [3]: prevented these effects
COc1cc2ncnc(Nc3ccc(O)cc3)c2cc1OC [JANEX-1]						onset of diabetes [4]: delayed the onset of diabetes
Clc1cnc2nc1Nc1cccc(c1)/C=C\c1cc(ccn1)N2 [Example C14, (14Z)-6-Chloro-2,4,8,17,22-pentaazatetracyclo[14.3.1.1(3,7).1(9,13)]docosa-1(20),3(22),4,6,9(21),10,12,14,16,18-decaene]	8.00	8.55	7.77	8.24	19	ring closure, isolated yield ([5]; from Nc1ccnc(/C=C\c2cccc(Nc3nc(Cl)ncc3Cl)c2)c1, 1,4-dioxane, 114.0 mM, 150.0 °C): 35%
CC(C)(C)c1nc2c3cc[nH]c(=O)c3c3cc(F)ccc3c2[nH]1 [pyridone 6]						STAT3 phosphorylation [11]: inhibited; tumor cell proliferation and survival [11]: inhibited
Clc1cnc2nc1Nc1cccc(c1)CCc1cc(ccn1)N2 [Example C12, 6-Chloro-2,4,8,17,22-pentaazatetracyclo[14.3.1.1(3,7).1(9,13)]docosa-1(20),3(22),4,6,9(21),10,12,16,18-nonaene]	7.85	8.02	7.41	7.89	26	ring closure, isolated yield ([5]; from Nc1ccnc(CCc2cccc(Nc3nc(Cl)ncc3Cl)c2)c1, 1,4-dioxane, 117.0 mM, 150.0 °C): 36%
Fc1cnc2nc1Nc1cccc(c1)CCc1cc(ccn1)N2 [Example C13, 6-Fluoro-2,4,8,17,22-pentaazatetracyclo[14.3.1.1(3,7).1(9,13)]docosa-1(20),3(22),4,6,9(21),10,12,16,18-nonaene]	7.15	7.77	6.81	7.80	18	ring closure, isolated yield ([5]; from Nc1ccnc(CCc2cccc(Nc3nc(Cl)ncc3F)c2)c1, 1,4-dioxane, 120.0 mM, 150.0 °C): 41%
Clc1cnc2nc1Nc1cccc(c1)CCc1cccc(n1)N2 [Example C17, 6-Chloro-2,4,8,20,22-pentaazatetracyclo[14.3.1.1(3,7).1(9,13)]docosa-1(20),3(22),4,6,9(21),10,12,16,18-nonaene]	< 6.00	< 6.00	< 6.00	< 6.00	1	ring closure, isolated yield ([5]; from Nc1cccc(CCc2cccc(Nc3nc(Cl)ncc3Cl)c2)n1, 1,4-dioxane/DMF 1:1, 75.0 mM, 160.0 °C): 37%
